Experimental data from US9730913B2 (THE JOHNS HOPKINS UNIVERSITY, priority 2011, dated 2017).
≈ marks a conversion by molar mass, not a printed value. Where “and” joins values, the source holds several entries; their conditions need not be identical. Equal values may be shown once.

Tests used:
[1] = molecular target: HSA (Homo sapiens, UniProt P02768); test: HSA binding (Kd)
[2] = molecular target: AmpC β-lactamase (Escherichia coli, UniProt P00811); test: Spectrophotometric nitrocefin hydrolysis inhibition assay, AmpC
Chain of AmpC β-lactamase (P00811 20-377): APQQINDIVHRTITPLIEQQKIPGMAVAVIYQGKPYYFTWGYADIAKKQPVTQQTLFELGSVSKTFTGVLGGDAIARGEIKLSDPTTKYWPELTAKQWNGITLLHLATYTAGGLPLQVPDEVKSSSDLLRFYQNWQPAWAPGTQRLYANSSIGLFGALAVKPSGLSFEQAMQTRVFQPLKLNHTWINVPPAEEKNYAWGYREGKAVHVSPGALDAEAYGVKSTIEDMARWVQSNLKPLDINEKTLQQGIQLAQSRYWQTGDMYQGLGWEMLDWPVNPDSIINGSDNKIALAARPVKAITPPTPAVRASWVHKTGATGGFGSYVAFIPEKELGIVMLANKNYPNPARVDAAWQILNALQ

[3] = Solubility; format: physicochemical
[4] = molecular target: wild type TEM-1 β-lactamase (Escherichia coli, UniProt P62593); test: Spectrophotometric nitrocefin hydrolysis inhibition assay, TEM-1; format: biochemical; settings: for IC50: inhibition values are IC50 unless noted
Chain of wild type TEM-1 β-lactamase (P62593 24-286 limits assumed): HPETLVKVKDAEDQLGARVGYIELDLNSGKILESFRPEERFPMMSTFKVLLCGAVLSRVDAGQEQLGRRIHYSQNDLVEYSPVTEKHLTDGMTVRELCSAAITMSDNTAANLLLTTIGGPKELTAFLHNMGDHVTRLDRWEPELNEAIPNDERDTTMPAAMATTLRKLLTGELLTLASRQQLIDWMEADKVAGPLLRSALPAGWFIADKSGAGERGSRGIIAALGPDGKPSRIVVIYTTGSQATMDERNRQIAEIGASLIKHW
Protocol: (§1) The inhibition of beta lactamase was determined spectrophotometrically. Beta lactamase activity was followed by measuring the change in absorbance upon hydrolysis of nitrocefin, [3-(2,4-dinitrostyryl)-(6R,7R)-7-(2-thienylacetamido)-ceph-3-em-4-carboxylic acid, E-isomer], (Calbiochem, San Diego, Calif., USA) at 486 nm. Inhibition constants (Ki) for the inhibitors are obtained at the desired temperature and solvent conditions by measuring the rate of substrate hydrolysis at increasing amounts of inhibitors. All inhibition assays were performed at 25° C. in 50 mM sodium phosphate, 5% DMSO, pH 7.0, keeping the enzyme concentration at 5 nM and the substrate concentration at 167 μM. Reaction was started by addition of substrate to the corresponding mixture of enzyme and inhibitor preincubated for 10 minutes.

[5] = molecular target: IMP-1 beta-lactamase (Serratia marcescens, UniProt P52699); test: Spectrophotometric nitrocefin hydrolysis inhibition assay, IMP-1
Chain of IMP-1 beta-lactamase (P52699 19-246, looked up): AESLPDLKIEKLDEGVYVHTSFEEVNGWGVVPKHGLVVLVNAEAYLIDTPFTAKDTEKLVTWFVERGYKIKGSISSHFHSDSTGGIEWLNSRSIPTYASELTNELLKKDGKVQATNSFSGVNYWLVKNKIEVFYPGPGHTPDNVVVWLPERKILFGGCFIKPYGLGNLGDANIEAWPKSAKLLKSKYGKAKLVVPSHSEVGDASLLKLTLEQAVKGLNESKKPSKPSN

[6] = Microsomal stability (T1/2); format: in vitro ADME; settings: microsomes
[7] = test system: AmpC; settings: read-out: Inhibitory Potency (IC50) AmpC; cited from earlier work
[8] = molecular target: TEM-1 (Escherichia coli, UniProt P62593); test: TEM-1 binding enthalpy (ΔH)
Chain of TEM-1 (P62593 24-286 limits assumed): as the sequence (P62593 24-286 limits assumed) above

[9] = molecular target: TEM-1 β-lactamase, Drug Resistant Mutants and AmpC β-lactamase; test: Average Ki over TEM-1, drug resistant mutants and AmpC; format: biochemical; settings: mean over TEM-1, TEM-12, TEM-17, TEM-30, TEM-40, AmpC
Protocol: as §1

[10] = test system: Vancomycin-resistant (VRSA) Staphylococcus aureus; test: Oxacillin MIC in presence of compound, VRSA; format: cell-based
[11] = test system: Methicillin-resistant (MRSA) Staphylococcus aureus; test: Oxacillin MIC in presence of compound, MRSA; format: cell-based
[12] = Oxacillin MIC with compound at 4 μg/mL

Chain of HSA (P02768 25-609): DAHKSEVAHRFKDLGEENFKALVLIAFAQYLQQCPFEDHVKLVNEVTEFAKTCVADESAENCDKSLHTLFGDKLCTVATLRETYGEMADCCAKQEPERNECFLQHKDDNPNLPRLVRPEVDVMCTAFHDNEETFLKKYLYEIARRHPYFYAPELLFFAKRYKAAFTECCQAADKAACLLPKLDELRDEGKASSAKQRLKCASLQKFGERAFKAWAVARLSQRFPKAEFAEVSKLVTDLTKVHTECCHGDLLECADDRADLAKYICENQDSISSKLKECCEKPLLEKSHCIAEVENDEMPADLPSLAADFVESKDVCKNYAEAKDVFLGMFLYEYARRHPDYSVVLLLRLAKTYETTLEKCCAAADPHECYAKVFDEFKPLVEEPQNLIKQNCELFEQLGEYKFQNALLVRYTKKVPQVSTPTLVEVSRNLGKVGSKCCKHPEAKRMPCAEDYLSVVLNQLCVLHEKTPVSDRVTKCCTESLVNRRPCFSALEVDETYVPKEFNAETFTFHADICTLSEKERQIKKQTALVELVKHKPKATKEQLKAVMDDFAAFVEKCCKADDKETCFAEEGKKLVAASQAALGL

Work on `COc1cc(NS(=O)(=O)/C=C/c2cccc(Cl)c2)ccc1OCc1cccc(Cl)c1` [ef-rs-09-029] yielded a Kd [1] of 484 ± 76 nM, an IC50 [2] of 706 ± 66 nM and a solubility [3] of 8 µM (≈ 3.71 µg/mL). The IC50 [4] was 406 ± 77 nM and the IC50 [5] was 171 ± 20 nM.

`O=S(=O)(/C=C/c1cccc(Cl)c1)Nc1ccc(OCc2cccc(Cl)c2)cc1` [ef-rs-09-030] showed a Kd [1] of 301 ± 65 nM, an IC50 [2] of 553 ± 58 nM and a solubility [3] of 6 µM (≈ 2.61 µg/mL). It also gave an IC50 [4] of 85 ± 21 nM and an IC50 [5] of 63 ± 8 nM.

Compound `COc1cccc(COc2cc(NS(=O)(=O)/C=C/c3cccc(Cl)c3)ccc2OC)c1` [ef-rs-09-018] has a Kd [1] of 348 ± 53 nM, an IC50 [2] of 1070 ± 360 nM and a solubility [3] of 50 µM (≈ 23 µg/mL). It also gave an IC50 [4] of 702 ± 91 nM, a half-life [6] of 22 ± 6 min and an IC50 [5] of 256 ± 33 nM.

`O=S(=O)(/C=C/c1cccc(Cl)c1)N(Cc1cccc(Cl)c1)c1cccc(Cl)c1` [ef-rs-03-075] showed a Ki ([4]; 25° C., 50 mM sodium phosphate, 5% DMSO, pH 7.0, nitrocefin 167 μM, read-out: Ki TEM-1 (WT)) of 82 ± 12 nM and a Ki [5] of 496 ± 57 nM.

Work on `O=S(=O)(/C=C/c1cccc(Cl)c1)N(Cc1cccc(Cl)c1)c1cccc(OCc2cccc(Cl)c2)c1` [ef-rs-08-052, (E)-N-(3-chlorobenzyl)-N-(3-(3-chlorobenzyloxy)phenyl)-2-(3-chlorophenyl)ethenesulfonamide] yielded a Ki [2] of 67 nM and a Ki [5] of 203 ± 51 nM.

For `CC1(C)[C@H](C(=O)O)N2C(=O)C[C@H]2S1(=O)=O` [Sulbactam], the IC50 [7] is listed as no less than 3800 nM.

For `COc1ccc(NS(=O)(=O)/C=C/c2cccc(Cl)c2)cc1O` [ef-rs-09-014], the Kd [1] was 2510 ± 1780 nM, the IC50 [2] was 3750 ± 500 nM and the solubility [3] was 450 µM (≈ 153 µg/mL). It also gave an IC50 [4] of 2470 ± 50 nM, a half-life [6] of less than 5 min and an IC50 [5] of 4690 ± 270 nM.

For `COc1ccc(NS(=O)(=O)/C=C/c2cccc(Cl)c2)cc1OCc1cccc(Cl)c1` [ef-rs-04-091], the Kd [1] was 4080 nM and 4260 nM, the IC50 [2] was 671 ± 238 nM and the solubility [3] was 19 µM (≈ 8.82 µg/mL). For the same compound, the “TEM-1 ΔH” value [8] was “+1.75 kcal/mol”, the half-life [6] was 70 ± 8 min and the IC50 [5] was 347 ± 43 nM.

In the case of `COc1ccc(NS(=O)(=O)/C=C/c2cccc([N+](=O)[O-])c2)cc1OCc1cccc(Cl)c1` [ef-rs-05-080], the Kd [1] is reported as 4580 nM and 5350 nM, the IC50 [2] is reported as 563 ± 63 nM and the solubility [3] is reported as 3 µM (≈ 1.42 µg/mL). The half-life [6] was 37 ± 4 min and the IC50 [5] was 1100 ± 40 nM.

For `O=S(=O)(/C=C/c1cccc(Br)c1)Nc1cccc(-c2nnn(Cc3cccc(Cl)c3)n2)c1`, the Ki [2] was 182 nM, the Ki [9] was 362 nM and the “mode of inhibition of TEM-1 beta-lactamase” value ([4]; double reciprocal plot, FIG. 3) was “competitive inhibition”.

For `O=C(O)[C@H]1/C(=C/CO)O[C@@H]2CC(=O)N21` [Clavulanic Acid], the IC50 [7] is given as no less than 59000 nM.

For `COc1cccc(/C=C/S(=O)(=O)Nc2cccc(OCc3cccc(Cl)c3)c2)c1` [ef-rs-05-054], the Kd [1] was 97.5 nM and 202 nM, the IC50 [2] was 555 ± 36 nM and the solubility [3] was 6 µM (≈ 2.58 µg/mL). For the same compound, the “TEM-1 ΔH” value [8] was “+2.32 kcal/mol”, the half-life [6] was 59 ± 6 min and the IC50 [5] was 734 ± 106 nM.

In the case of `O=S(=O)(/C=C/c1cccc(Cl)c1)Nc1cccc(OCc2cccc(Cl)c2)c1` [ef-rs-08-048], the “MIC (VRSA) [4 μg/ml]” value [10, 12] is reported as 0.25, the “reduction of Oxacillin MIC” value ([10]; compound at 4 μg/mL) is reported as 8 fold and the “MIC (MRSA) [4 μg/mL]” value [11, 12] is reported as 2. The “reduction of Oxacillin MIC” value ([11]; compound at 4 μg/mL) was 8 fold, the Kd [1] was 113 nM and 252 nM and the IC50 [2] was 477 ± 59 nM. For the same compound, the solubility [3] was 19 µM (≈ 8.25 µg/mL), the half-life [6] was 120 ± 10 min and the IC50 [5] was 487 ± 90 nM.

For `O=S(=O)(/C=C/c1cccc(C(F)(F)F)c1)Nc1cccc(-c2nnn(Cc3cccc(Cl)c3)n2)c1` [ef-rs-05-076], the Ki [2] was 80 nM and the Ki [9] was 176 nM.

For `O=S(=O)(/C=C/c1cccc(Cl)c1)Nc1cccc(OCc2cccc(F)c2)c1` [ef-rs-09-012], the Kd [1] was 49 nM and 52 nM, the IC50 [2] was 846 ± 100 nM and the solubility [3] was 7 µM (≈ 2.93 µg/mL). It also gave an IC50 [4] of 523 ± 84 nM, a half-life [6] of 81 ± 14 min and an IC50 [5] of 157 ± 12 nM.
